The values that follow come from patent publication US12453349B2, “Compositions comprising pyridine carboxylate herbicides and 4-hydroxyphenyl-pyruvate dioxygenase (HPPD) inhibitor herbicides” (Corteva Agriscience LLC, priority 2018, dated 2025).

Structures are written as SMILES.

What all share (format): in vivo
Data set [1] deals with BRSNN, Brassica napus (spring rape). Briefly: Greenhouse postemergence herbicidal effect, visual injury 20-22 d after application. The source says:
(§1) Seeds of the desired test plant species were planted in a 90:10% v/v (volume/volume) mixture of PRO-MIX® BX (Premier Tech Horticulture, Quakertown, PA, USA) and PROFILE® GREENS GRADE™ (Profile Products LLC, Buffalo Grove, IL, USA) planting mixture, which typically has a pH of 5.2 to 6.2 and an organic matter content of at least 50 percent, in plastic pots with a surface area of 103.2 square centimeters (cm^2). In some aspects, to help ensure good germination and healthy plants, a fungicide treatment and/or other chemical or physical treatment was applied. The plants were grown for 7-36 days (d) in a greenhouse with an approximate 14-hour (h) photoperiod which was maintained at about 23° C. during the day and 22° C. during the night. Nutrients and water were added on a regular basis and supplemental lighting was provided with overhead metal halide 1000-Watt lamps as necessary. The plants were employed for testing when they reached the second or third true leaf stage.
(§2) Emulsifiable concentrates of each of each pyridine carboxylate herbicide (Compound A or Compound B) were prepared at 100 grams acid equivalent per liter (g ae/L). The emulsifiable concentrates also included a safener, cloquintocet mexyl, at 120 grams active ingredient per liter (g ai/L). An aliquot of each emulsifiable concentrate was placed in a 25 mL glass vial and diluted with an aqueous mixture of 1.25% (v/v) ACTIROB® B esterified rapeseed oil (Bayer Crop Science, Research Triangle Park, NC, USA) or MSO® Concentrate with LECI-TECH® methylated soybean oil (Loveland Products, Loveland, CO, USA) to obtain concentrated stock solutions at the highest application rate for each herbicide, based upon a 12 milliliter (mL) application volume at a rate of 187 liters per hectare (L/ha). The concentrated stock solutions were further diluted with an aqueous mixture of 1.25% v/v ACTIROB® B or MSO® Concentrate with LECI-TECH® to obtain stock solutions at reduced application rates for each herbicide. Spray solutions of the herbicide combinations (Compound A or Compound B plus HPPD inhibitor herbicide) were prepared by adding weighed amounts or aliquots of the HPPD inhibitor herbicides to the stock solutions of Compound A or Compound B to form 12-mL spray solutions in two-way combinations.
(§3) The spray solutions were applied to the plant material with an overhead Mandel track sprayer equipped with 8002E nozzles calibrated to deliver 187 L/ha over an application area of 0.503 square meters (m^2) at a spray height of 18 inches (43 centimeters (cm)) above the average plant canopy. Control plants were sprayed in the same manner with the solvent blank. All pyridine carboxylate herbicide (component a) application rates are given as “g ae/ha” and all HPPD inhibitor herbicide (component b) application rates are given as “g ai/ha.”
(§4) The treated plants and control plants were placed in a greenhouse as described above and watered by sub-irrigation to prevent wash-off of the test compounds. After 20-22 d, the condition of the test plants as compared with that of the control plants was determined visually and scored on a scale of 0 to 100 percent where 0 corresponds to no injury and 100 corresponds to complete kill.

Data set [2] concerns SETFA, Setaria faberi (giant foxtail). The description is as above. The settings on record: Benzobicyclon 50 g ai/ha.
Text: as §1, §2, §3, §4

Data set [3] has as its system LOLMU, Lolium multiflorum (Italian ryegrass). The description is as above. The following applies: Benzobicyclon 50 g ai/ha.
Text: as §1, §2, §3, §4

Data set [4] concerns STEME, Stellaria media (chickweed). The data set is described as above. The following applies: Benzobicyclon 50 g ai/ha.
Text: as §1, §2, §3, §4

Data set [5] has as its system ECHCG, Echinochloa crus-galli (barnyard grass). The description is as above. The following applies: Benzobicyclon 50 g ai/ha.
Text: as §1, §2, §3, §4

For data set [6], the system named is DIGSA, Digitaria sanguinalis (large crabgrass). The description is as above. The settings on record: Benzobicyclon 50 g ai/ha.
Text: as §1, §2, §3, §4

Data set [7] concerns KCHSC, Kochia scoparia (kochia). The data set is described as above. The following applies: Bassia scoparia, post-emergence, read-out: % visual injury Obs.
Text: as §1, §2, §3, §4

Data set [8] relates to CIRAR, Cirsium arvense (Canadian thistle). Described as above.
Text: as §1, §2, §3, §4

The test system of data set [9] is VIOTR, Viola tricolor (wild pansy). Described as above.
Text: as §1, §2, §3, §4

Data set [10] concerns ABUTH, Abutilon theophrasti (velvetleaf). The data set is described as above.
Text: as §1, §2, §3, §4

For data set [11], the system named is IPOHE, Ipomoea hederacea (ivyleaf morningglory). The description is as above. The settings on record: Isoxaflutole 60 g ai/ha.
Text: as §1, §2, §3, §4

The test system of data set [12] is POLCO, Polygonum convolvulus (wild buckwheat). The data set is described as above.
Text: as §1, §2, §3, §4

Data set [13] has as its system AMARE, Amaranthus retroflexus (pigweed). The data set is described as above.
Text: as §1, §2, §3, §4

Data set [14] has as its system HELAN, Helianthus annuus (common sunflower). The data set is described as above.
Text: as §1, §2, §3, §4

The subject of data set [15] is EPHHL, Euphorbia heterophylla (poinsettia). Described as above. The following applies: Mesotrione 35 g ai/ha.
Text: as §1, §2, §3, §4

Data set [16] has as its system MATCH, Matricaria chamomilla (wild chamomile). The data set is described as above.
Text: as §1, §2, §3, §4

Data set [17] has as its system CHEAL, Chenopodium album L. (common lambsquarters). Described as above.
Text: as §1, §2, §3, §4

The subject of data set [18] is BRSNW, Brassica napus (winter rape). Described as above.
Text: as §1, §2, §3, §4

Data set [19] relates to SINAR, Sinapis arvensis (wild mustard). The description is as above.
Text: as §1, §2, §3, §4

In data set [20] the test system is SASKR, Salsola kali (Russian thistle). The description is as above.
Text: as §1, §2, §3, §4

Data set [21] deals with TRZAS, Triticum aestivum (spring wheat). Briefly: Greenhouse postemergence phytotoxicity on crop, visual injury 20-22 d after application.
Text: as §1, §2, §3, §4

For data set [22], the system named is HORVS, Hordeum vulgare (spring barley). Described as above.
Text: as §1, §2, §3, §4

The mark [23] stands for this setting: Mesotrione 35 g ai/ha (Table 8).

With `CS(=O)(=O)c1ccc(C(=O)C2=C(Sc3ccccc3)C3CCC(C3)C2=O)c(Cl)c1` (stereo not shown) [Benzobicyclon, 3-[2-chloro-4-(methylsulfonyl)benzoyl]-4-(phenylthio)bicyclo[3.2.1]oct-3-en-2-one], the “% visual injury Obs” value in data set [1] (Benzobicyclon 50 g ai/ha) turned out to be 8%; in [2], 0%; in data set [3], 0%; in [4] it was 28%; in data set [5], 0%; in data set [6], 10%. The pest or weed control at 50 g/ha in data set [7] (KCHSC, Benzobicyclon 50 g ai/ha) came out at 0%.
With `C#CCOC(=O)c1nc(-c2ccc3cc[nH]c3c2F)c(F)c(N)c1Cl` [Compound B, propargyl 4-amino-3-chloro-5-fluoro-6-(7-fluoro-1H-indol-6-yl)pyridine-2-carboxylate], the “% visual injury Obs” value in data set [8] (Compound B 7.5 g ae/ha) is reported as 45%; in data set [8] (Compound B 10 g ae/ha) it was 45%; in data set [9] (Compound B 7.5 g ae/ha), 10%; in data set [9] (Compound B 10 g ae/ha), 40%; in data set [10] (Compound B 7.5 g ae/ha) it was 68%; in data set [10] (Compound B 10 g ae/ha), 68%.
As to `CS(=O)(=O)c1cc(C(F)(F)F)ccc1C(=O)c1cnoc1C1CC1` [Isoxaflutole, (5-cyclopropyl-4-isoxazolyl)[2-(methylsulfonyl)-4-(trifluoromethyl)phenyl]methanone], the “% visual injury Obs” value was 38% in [11]; 70% in data set [8] (Isoxaflutole 60 g ai/ha); 25% in [9] (Isoxaflutole 60 g ai/ha); 58% in data set [10] (Isoxaflutole 60 g ai/ha); 0% in data set [12] (Isoxaflutole 60 g ai/ha); 53% in data set [13] (Isoxaflutole 60 g ai/ha). In addition, the “% visual injury Obs” value in data set [14] (Isoxaflutole 60 g ai/ha) turned out to be 85%. Besides, the pest or weed control at 60 g/ha in data set [7] (KCHSC, Isoxaflutole 60 g ai/ha) is 38%.
For the molecule `CS(=O)(=O)c1ccc(C(=O)C2C(=O)CCCC2=O)c([N+](=O)[O-])c1` [Mesotrione, 2-[4-(methylsulfonyl)-2-nitrobenzoyl]-1,3-cyclohexanedione], the “% visual injury Obs” value in data set [15] was 100%; in data set [8] (Mesotrione 35 g ai/ha), 84%; in [8] (setting [23]) it was 73%; in data set [9] (Mesotrione 35 g ai/ha) it was 75%; in data set [9] (setting [23]), 78%; in data set [10] (Mesotrione 35 g ai/ha), 99%. Moreover, the “% visual injury Obs” value was 85% in data set [10] (setting [23]), 75% in data set [12] (Mesotrione 35 g ai/ha), 90% in data set [13] (Mesotrione 35 g ai/ha) and 90% in data set [14] (Mesotrione 35 g ai/ha). Moreover, the pest or weed control at 35 g/ha in data set [7] (KCHSC, Mesotrione 35 g ai/ha) stood at 35%.
Consider `Cc1ccc(S(=O)(=O)Oc2c(C(=O)c3ccc(Cl)cc3Cl)c(C)nn2C)cc1` [Pyrazolynate, (2,4-dichlorophenyl) [1,3-dimethyl-5-[[(4-methylphenyl)sulfonyl]oxy]-1H-pyrazol-4-yl]methanone], for which the “% visual injury Obs” value was found to be 0% in data set [8] (Pyrazolynate 225 g ai/ha); 0% in data set [16] (Pyrazolynate 225 g ai/ha); 5% in data set [12] (Pyrazolynate 225 g ai/ha); 5% in [17] (Pyrazolynate 225 g ai/ha); 0% in data set [18] (Pyrazolynate 225 g ai/ha); 10% in [13] (Pyrazolynate 225 g ai/ha). The “% visual injury Obs” value in [19] (Pyrazolynate 225 g ai/ha) came out at 5%; in data set [20] (Pyrazolynate 225 g ai/ha) it was 0%. Also, the pest or weed control at 225 g/ha in data set [7] (KCHSC, Pyrazolynate 225 g ai/ha) worked out at 0%.
Regarding `CS(=O)(=O)c1ccc(C(=O)C2C(=O)CCCC2=O)c(Cl)c1` [Sulcotrione, 2-[2-chloro-4-(methylsulfonyl)benzoyl]-1,3-cyclohexanedione], the “% visual injury Obs” value in data set [21] (Sulcotrione 75 g ai/ha) worked out at 0%; in [22] (Sulcotrione 75 g ai/ha), 8%; in [1] (Sulcotrione 75 g ai/ha) it was 75%. Also, in data set [7], the pest or weed control at 75 g/ha was determined as 30%.
`CS(=O)(=O)c1ccc(C(=O)C2C(=O)CCCC2=O)c(Cl)c1COCC(F)(F)F` [Tembotrione, 2-[2-chloro-4-(methylsulfonyl)-3-[(2,2,2-trifluoroethoxy)methyl]benzoyl]-1,3-cyclohexanedione]: the “% visual injury Obs” value in [8] (Tembotrione 25 g ai/ha) stood at 75%; in data set [16] (Tembotrione 25 g ai/ha), 73%; in data set [12] (Tembotrione 25 g ai/ha) it was 25%; in [17] (Tembotrione 25 g ai/ha) it was 100%; in data set [18] (Tembotrione 25 g ai/ha), 88%; in [13] (Tembotrione 25 g ai/ha), 100%. Also, the “% visual injury Obs” value worked out at 95% in [19] (Tembotrione 25 g ai/ha) and 78% in data set [20] (Tembotrione 25 g ai/ha). Besides, in [7] (KCHSC, Tembotrione 25 g ai/ha), the pest or weed control at 25 g/ha came out at 48%.
For `Cc1c(C(=O)c2cnn(C)c2O)ccc(S(C)(=O)=O)c1C1=NOCC1` [Topramezone, [3-(4,5-dihydro-3-isoxazolyl)-2-methyl-4-(methylsulfonyl)phenyl] (5-hydroxy-1-methyl-1H-pyrazol-4-yl) methanone], the “% visual injury Obs” value in [21] (Topramezone 40 g ai/ha) is 33%; in [22] (Topramezone 40 g ai/ha), 38%; in data set [8] (Topramezone 40 g ai/ha), 20%; in data set [16] (Topramezone 40 g ai/ha), 30%; in data set [12] (Topramezone 40 g ai/ha), 43%; in data set [17] (Topramezone 40 g ai/ha), 100%. The figures for the “% visual injury Obs” value in [18] (Topramezone 40 g ai/ha), in data set [13] (Topramezone 40 g ai/ha) and in data set [19] (Topramezone 40 g ai/ha) were 98%, 100% and 100%, respectively. Moreover, in data set [7], the pest or weed control at 40 g/ha was 35%.
